Data set [1] is described as follows: (§1) Antiproliferative activity against Con A-induced BALB/c mouse splenocytes at 30 uM after 48 hrs by CCK-8 method relative to control. The format is functional. Conditions: Splenocyte. For orientation: Formazan colour is commonly taken as a measure of viable cells.
The nature of data set [2]: Antiproliferative activity against Con A-induced BALB/c mouse splenocytes after 48 hrs by CCK-8 method relative to control. The format is functional, cell-based. Conditions: Splenocyte.
Data set [3] in a line: Cytotoxicity against BALB/c mouse splenocytes up to 110 uM after 48 hrs by CCK-8 method. Conditions: splenocyte. The class given is cell-based.
For the next data set, the system named is Splenocyte. The description is as §1. The format is functional.

Active and inactive are the calls of the source. The rule behind the calls is not given here.

In general, inhibition refers to the percentage by which the read-out fell short of the control. Usually IC50 stands for the point on the concentration scale where inhibition reaches its midpoint.

Regarding `O=C(O)[C@H]1N[C@H](CO)[C@H](O)[C@H](O)[C@H]1O`, the inhibition at 30 µM in data set [1] came to 7.2%. Still for that read-out and setting: the value for `OCCC[C@H]1N[C@@H](CO)[C@H](O)[C@H](O)[C@H]1O` was 19.3%; that for `N#CC[C@H]1N[C@H](CO)[C@H](O)[C@H](O)[C@H]1O` was 27.9%.

Compound `OC[C@H]1C[C@@H](O)[C@@H](O)[C@@H](CO)N1` had an inhibition at 30 µM in data set [1] of 22.3%. `OCCC[C@H]1N[C@H](CO)[C@H](O)[C@H](O)[C@H]1O` had an inhibition at 30 µM in data set [1] of 14.6%.

Turning to `CCCCCCN1[C@H](CO)[C@H](O)[C@H](O)[C@@H](O)[C@H]1CCl`, in data set [1], the inhibition at 30 µM turned out to be 38.9%. The same measure, in the same setting: next, `O=C(O)CC[C@H]1N[C@H](CO)[C@H](O)[C@H](O)[C@H]1O`: 4.9%. Take `CCCCCCCCCN1[C@H](CO)[C@H](O)[C@H](O)[C@@H](O)[C@H]1CCl`: in data set [2], half-maximal inhibition (IC50) was put at 22 µM. Further, the Activity entry in data set [3] is “Non-toxic”. For the same compound, in data set [1], the inhibition at 30 µM was 54.1%. Turning to `OC[C@H]1N[C@H](CO)[C@H](O)C(O)[C@H]1O` (stereo not given in full), in data set [1], testing at 30 µM gave an inhibition of 7.8%. With `O=C(O)[C@H]1N[C@@H](CO)[C@H](O)[C@H](O)[C@H]1O`, in the data set on Splenocyte, the inhibition entry was “inactive”. As to `OC[C@@H]1N[C@H](CO)[C@H](O)[C@@H](O)[C@H]1O`, in data set [1], at 30 µM the inhibition was 9.7%. On the same count and under the same terms, the value for `O=C(O)CC[C@H]1N[C@@H](CO)[C@H](O)[C@H](O)[C@H]1O` was 6.4%; that for `CCCCCCN1[C@H](CO)[C@H](O)C(O)[C@@H](O)[C@H]1CO` (stereo not given in full) was 25.5%; that for `OC[C@H]1N[C@H](CCl)[C@H](O)[C@@H](O)[C@H]1O` was 20.8%. On the same count and under the same terms, next, `O=C(O)[C@@H]1N[C@@H](CO)[C@H](O)[C@H](O)[C@H]1O`: 21.2%. In data set [2], `CCCCCCCCCN1[C@H](CCl)[C@H](O)[C@@H](O)[C@@H](O)[C@@H]1CO` displayed an IC50 of 45 µM. Besides, the Activity entry in data set [3] was “Non-toxic”. For the same compound, in data set [1], the inhibition at 30 µM stood at 43.6%.

Source of the values: ChEMBL document CHEMBL3217523, “Design and syntheses of some iminosugar derivatives as potential immunosuppressants” (Medchemcomm, 2011).
